Results published in ChEMBL document CHEMBL1201862, “PubChem BioAssay data set” (2004).
The source made the active and inactive calls.

What was measured:
[1] = molecular target: Glucose-6-phosphate 1-dehydrogenase (Homo sapiens, UniProt P11413); experiment: inhibition of Homo sapiens G6PD, dose series – biochemical, fluorescence, selectivity assay for P. falciparum G6PD inhibitor project, dose response (AID 504792); assay type: functional
[2] = THP-1 cell cytotoxicity, dose response, cytotoxicity control for non-replicating M. tuberculosis project (AID 489025); assay type: functional
[3] = Vero E6 cell cytotoxicity, dose response, cytotoxicity control for non-replicating M. tuberculosis project, secondary assay (AID 492998); assay type: functional, VeroE6; settings: Vero C1008
[4] = molecular target: T1, Aminopeptidase N (Plasmodium falciparum FcB1/Columbia, UniProt O96935); experiment: malaria alanyl aminopeptidase activity blockers – biochemical, fluorogenic H-Leu-NHMec substrate, 1536-well (AID 1445); design: species or system Plasmodium falciparum 3D7, 3D7
T1 sequence (O96935 whole entry): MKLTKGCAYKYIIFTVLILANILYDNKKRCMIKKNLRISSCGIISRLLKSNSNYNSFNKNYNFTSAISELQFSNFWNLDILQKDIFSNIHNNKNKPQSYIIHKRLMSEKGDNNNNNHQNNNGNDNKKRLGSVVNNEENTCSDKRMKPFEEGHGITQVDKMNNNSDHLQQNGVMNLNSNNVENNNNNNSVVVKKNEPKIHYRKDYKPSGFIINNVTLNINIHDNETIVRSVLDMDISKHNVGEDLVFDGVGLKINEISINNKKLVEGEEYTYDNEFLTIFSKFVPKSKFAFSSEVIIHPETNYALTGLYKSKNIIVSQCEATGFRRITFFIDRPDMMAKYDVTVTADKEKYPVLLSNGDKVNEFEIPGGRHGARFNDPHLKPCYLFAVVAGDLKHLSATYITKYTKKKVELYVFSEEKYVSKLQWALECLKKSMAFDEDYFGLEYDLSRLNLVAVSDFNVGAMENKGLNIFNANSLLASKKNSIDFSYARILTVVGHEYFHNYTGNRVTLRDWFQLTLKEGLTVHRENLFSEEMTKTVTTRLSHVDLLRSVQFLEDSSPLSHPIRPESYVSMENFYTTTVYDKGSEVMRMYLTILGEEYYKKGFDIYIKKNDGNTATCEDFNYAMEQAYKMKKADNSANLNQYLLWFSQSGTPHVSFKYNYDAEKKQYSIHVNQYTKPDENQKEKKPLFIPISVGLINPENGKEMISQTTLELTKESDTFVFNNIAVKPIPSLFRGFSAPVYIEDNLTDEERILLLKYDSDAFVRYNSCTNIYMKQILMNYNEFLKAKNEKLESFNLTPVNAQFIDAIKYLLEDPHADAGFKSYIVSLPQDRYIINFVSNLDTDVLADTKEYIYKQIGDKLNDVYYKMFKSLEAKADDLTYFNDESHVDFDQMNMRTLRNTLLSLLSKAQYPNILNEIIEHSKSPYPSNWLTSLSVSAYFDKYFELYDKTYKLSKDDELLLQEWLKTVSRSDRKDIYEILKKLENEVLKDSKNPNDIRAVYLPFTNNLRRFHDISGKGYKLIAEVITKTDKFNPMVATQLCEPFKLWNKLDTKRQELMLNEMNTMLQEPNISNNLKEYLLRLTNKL

[5] = molecular target: Nonstructural protein 1 (Influenza A virus, UniProt Q194T2); assay type: functional, Influenza A virus (A/California/07/2009(H1N1))
Nonstructural protein 1, sequence (Q194T2 whole entry): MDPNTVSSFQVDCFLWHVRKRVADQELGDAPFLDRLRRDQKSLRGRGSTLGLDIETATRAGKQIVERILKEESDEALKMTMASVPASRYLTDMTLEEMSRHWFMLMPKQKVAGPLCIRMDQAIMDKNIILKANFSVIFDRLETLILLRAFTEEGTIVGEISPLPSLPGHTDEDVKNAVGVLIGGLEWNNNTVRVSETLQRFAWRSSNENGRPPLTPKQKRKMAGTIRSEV

[6] = molecular target: T2, DNA repair protein RAD52 homolog (Homo sapiens, UniProt P43351); assay type: functional, biochemical
T2 sequence (P43351 whole entry): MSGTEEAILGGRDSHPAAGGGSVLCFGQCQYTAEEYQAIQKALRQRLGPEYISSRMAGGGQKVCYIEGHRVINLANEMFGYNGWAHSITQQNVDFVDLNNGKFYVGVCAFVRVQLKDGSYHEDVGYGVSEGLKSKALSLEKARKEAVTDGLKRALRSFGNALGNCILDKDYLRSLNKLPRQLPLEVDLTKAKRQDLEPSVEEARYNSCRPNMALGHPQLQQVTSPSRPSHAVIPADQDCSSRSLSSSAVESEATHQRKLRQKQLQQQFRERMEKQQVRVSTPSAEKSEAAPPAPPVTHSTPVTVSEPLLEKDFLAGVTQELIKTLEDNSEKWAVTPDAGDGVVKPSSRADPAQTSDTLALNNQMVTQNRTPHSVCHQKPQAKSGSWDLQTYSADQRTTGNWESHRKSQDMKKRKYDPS

[7] = cells; assay type: functional
[8] = fluconazole-exposed Candida albicans growth modulators – fluorescence, retest, confirmation (AID 2467); assay type: functional, cell-based
[9] = NIH-3T3 fibroblast cytotoxicity, dose response, cytotoxicity control, cell-based, fluorescence, Alamar Blue, secondary assay (AID 2327); assay type: functional;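 also: NIH-3T3 mouse fibroblasts cultured with fluconazole at 8 µg/mL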
[10] = A cytotoxicity screen of small molecule inhibitors of the PhoP region in Salmonella typhi identified in the primary screen. [Related pubchem assays: 1850, 1864, 1985 ]; assay type: functional
[11] = molecular target: Glyceraldehyde-3-phosphate dehydrogenase (Homo sapiens, UniProt P04406)
Glyceraldehyde-3-phosphate dehydrogenase, sequence (P04406 whole entry): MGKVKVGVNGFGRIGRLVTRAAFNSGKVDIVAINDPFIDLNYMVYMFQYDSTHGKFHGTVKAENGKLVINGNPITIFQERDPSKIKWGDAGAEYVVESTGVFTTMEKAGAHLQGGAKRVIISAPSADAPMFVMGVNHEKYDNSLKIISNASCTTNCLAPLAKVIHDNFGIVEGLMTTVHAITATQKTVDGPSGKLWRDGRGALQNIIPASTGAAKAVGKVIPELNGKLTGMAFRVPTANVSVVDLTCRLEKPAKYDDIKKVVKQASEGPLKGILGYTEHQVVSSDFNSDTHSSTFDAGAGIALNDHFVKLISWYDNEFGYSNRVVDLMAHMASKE

[12] = molecular target: Genome polyprotein (dengue virus type 2, UniProt P29990); experiment: flavivirus cap methylation enzyme inhibition – biochemical, confirmation dose response, primary screen (AID 588689); assay type: functional
Genome polyprotein, sequence (P29990 2492-3391 limits assumed): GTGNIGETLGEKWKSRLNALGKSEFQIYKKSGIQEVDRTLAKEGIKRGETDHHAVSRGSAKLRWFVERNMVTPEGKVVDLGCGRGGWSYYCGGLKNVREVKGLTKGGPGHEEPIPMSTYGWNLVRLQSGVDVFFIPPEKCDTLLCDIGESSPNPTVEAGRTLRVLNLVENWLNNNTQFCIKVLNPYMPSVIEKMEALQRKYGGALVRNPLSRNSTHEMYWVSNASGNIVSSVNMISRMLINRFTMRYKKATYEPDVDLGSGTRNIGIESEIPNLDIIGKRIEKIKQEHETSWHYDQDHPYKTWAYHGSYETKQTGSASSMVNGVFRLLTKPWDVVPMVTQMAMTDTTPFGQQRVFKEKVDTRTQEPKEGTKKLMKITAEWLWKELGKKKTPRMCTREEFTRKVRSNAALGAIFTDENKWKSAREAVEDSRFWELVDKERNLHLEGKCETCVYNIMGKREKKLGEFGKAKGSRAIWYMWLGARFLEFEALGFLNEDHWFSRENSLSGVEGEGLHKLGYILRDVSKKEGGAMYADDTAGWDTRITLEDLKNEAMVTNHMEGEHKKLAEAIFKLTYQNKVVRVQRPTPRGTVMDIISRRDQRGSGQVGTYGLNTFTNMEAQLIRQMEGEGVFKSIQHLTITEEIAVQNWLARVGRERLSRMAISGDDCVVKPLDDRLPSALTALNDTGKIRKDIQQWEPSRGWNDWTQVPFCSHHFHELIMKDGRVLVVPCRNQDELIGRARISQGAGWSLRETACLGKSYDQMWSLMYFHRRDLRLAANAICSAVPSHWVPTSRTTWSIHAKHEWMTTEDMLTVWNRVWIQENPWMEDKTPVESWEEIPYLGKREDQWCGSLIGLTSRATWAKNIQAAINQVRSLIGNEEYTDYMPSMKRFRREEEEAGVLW

[13] = molecular target: T3, Replicative DNA helicase DnaB (Mycobacterium tuberculosis, UniProt P9WMR3); experiment: DnaB intein splicing inhibitors, dose response, biochemical, cell-free fluorescence (AID 449749); assay type: functional
T3 sequence (P9WMR3 whole entry): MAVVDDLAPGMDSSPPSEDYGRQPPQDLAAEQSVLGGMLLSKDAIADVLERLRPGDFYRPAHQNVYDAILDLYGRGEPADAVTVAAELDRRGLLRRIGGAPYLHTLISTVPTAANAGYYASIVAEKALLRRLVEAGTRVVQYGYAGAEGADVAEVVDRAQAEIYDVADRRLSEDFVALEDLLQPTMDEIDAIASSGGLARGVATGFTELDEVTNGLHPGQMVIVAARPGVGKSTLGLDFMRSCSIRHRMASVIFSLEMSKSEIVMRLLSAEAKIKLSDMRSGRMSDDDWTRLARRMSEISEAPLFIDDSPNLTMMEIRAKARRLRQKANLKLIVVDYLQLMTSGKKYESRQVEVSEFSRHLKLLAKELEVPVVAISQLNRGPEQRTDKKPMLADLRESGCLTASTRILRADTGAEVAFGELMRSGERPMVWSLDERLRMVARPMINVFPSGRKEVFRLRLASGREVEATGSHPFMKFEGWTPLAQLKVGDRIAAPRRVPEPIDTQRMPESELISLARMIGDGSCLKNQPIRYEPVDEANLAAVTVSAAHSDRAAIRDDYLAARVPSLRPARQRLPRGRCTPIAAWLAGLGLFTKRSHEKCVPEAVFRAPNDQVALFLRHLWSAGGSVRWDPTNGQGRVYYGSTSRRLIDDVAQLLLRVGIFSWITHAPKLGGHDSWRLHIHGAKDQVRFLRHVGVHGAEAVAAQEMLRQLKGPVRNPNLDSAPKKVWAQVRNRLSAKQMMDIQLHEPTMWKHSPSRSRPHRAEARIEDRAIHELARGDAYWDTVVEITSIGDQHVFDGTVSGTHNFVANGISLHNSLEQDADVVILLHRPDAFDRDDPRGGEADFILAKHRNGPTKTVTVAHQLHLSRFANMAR

[14] = molecular target: T4, Protein RecA (Mycobacterium tuberculosis, UniProt P9WHJ3); experiment: Fluorescence Cell-Free Homogeneous Dose Retest to Identify Inhibitors of RecA-Intein Splicing Activity. [Related pubchem assays (depositor defined):AID2097, AID2223, AID489010, AID492950]; assay type: functional
T4 sequence (P9WHJ3 whole entry): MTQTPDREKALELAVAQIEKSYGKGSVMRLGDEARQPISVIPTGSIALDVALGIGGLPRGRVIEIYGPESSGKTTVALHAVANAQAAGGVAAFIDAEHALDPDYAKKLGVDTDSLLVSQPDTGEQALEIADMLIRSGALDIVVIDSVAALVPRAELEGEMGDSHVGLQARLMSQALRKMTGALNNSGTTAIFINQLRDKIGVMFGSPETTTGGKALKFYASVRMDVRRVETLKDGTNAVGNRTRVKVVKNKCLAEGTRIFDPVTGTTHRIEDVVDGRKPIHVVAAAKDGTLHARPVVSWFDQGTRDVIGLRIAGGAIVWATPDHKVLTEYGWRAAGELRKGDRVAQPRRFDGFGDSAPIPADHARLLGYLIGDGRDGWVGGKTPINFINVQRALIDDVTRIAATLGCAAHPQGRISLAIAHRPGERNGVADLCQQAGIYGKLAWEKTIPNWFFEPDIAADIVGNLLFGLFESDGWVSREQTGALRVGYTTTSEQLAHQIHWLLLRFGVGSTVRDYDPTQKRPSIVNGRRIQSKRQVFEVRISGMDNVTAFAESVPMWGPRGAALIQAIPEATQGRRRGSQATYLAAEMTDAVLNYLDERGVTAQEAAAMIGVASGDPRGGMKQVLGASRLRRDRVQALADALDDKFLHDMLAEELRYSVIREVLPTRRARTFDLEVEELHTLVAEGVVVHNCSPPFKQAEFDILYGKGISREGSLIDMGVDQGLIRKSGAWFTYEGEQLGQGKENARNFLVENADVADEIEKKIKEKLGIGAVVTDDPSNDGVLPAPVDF

[15] = molecular target: T5, Ubiquitin-conjugating enzyme E2 N (Homo sapiens, UniProt P61088); assay type: functional;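 also: Dose-response confirmation in a TR-FRET assay detecting UBC13-driven polyubiquitin chain formation, inhibition measured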
T5 sequence (P61088 whole entry): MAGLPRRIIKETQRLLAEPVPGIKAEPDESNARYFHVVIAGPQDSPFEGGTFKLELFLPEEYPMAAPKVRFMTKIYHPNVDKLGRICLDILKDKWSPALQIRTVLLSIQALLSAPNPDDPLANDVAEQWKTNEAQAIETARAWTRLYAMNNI

Glucose-6-phosphate 1-dehydrogenase, sequence (P11413 whole entry): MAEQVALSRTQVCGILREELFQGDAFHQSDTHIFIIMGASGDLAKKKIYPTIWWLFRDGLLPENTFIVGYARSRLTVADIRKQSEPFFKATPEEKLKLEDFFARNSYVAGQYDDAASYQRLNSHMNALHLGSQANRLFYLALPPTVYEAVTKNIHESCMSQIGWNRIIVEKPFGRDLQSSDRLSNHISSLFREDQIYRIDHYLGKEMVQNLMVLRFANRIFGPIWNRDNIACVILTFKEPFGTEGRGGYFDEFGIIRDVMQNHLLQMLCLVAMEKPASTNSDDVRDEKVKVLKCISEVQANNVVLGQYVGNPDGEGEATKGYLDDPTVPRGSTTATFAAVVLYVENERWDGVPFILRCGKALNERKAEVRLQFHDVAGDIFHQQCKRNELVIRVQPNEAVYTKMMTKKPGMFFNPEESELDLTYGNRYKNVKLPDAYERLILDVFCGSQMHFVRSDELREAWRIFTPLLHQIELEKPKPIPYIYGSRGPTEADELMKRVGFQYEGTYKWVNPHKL

Compound: COc1cc(NCc2ccccc2)c2ncn(Cc3ccccc3)c2c1
- IC50 [1]: > 80 µM (inactive)

Compound: COc1ccc(CCCC(=O)NCc2ccccc2)cc1C
- CC50 [2]: 9.44 µM (active)
- CC50 [3]: > 20 µM (active)

Compound: O=C1c2cccc3cccc(c23)C(=O)N1CCCc1nnc(S)n1-c1ccccc1
- IC50 [4]: 17.9 µM (active)

Compound: COc1cc(/C=C2\SC(c3ccccc3)=NC2=O)cc(Cl)c1O
- IC50 [5]: 12.7 µM (active)
- IC50 [4]: 20 µM (active)

Compound: CCOc1ccc2[nH]c3c(c2c1)CNCC3
- AC50 [6]: 26.8 µM (active)

Compound: COc1ccccc1NC(=O)CSc1ccc(-c2ccccn2)nn1
- IC50 [5]: 7.99 µM (active)

Compound: CCc1ccc(Cc2cnc(NC(=O)C3=NCCN3)s2)cc1
- IC50 [7]: 9.25 µM (active)
- CC50 [2]: > 40 µM (active)

Compound: COCc1cc(CN2CCN(C)CC2)c(O)c2ncccc12
- IC50 [5]: 4.15 µM (active)
- EC50 [8]: > 38 µM (not active)
- EC50 [9]: > 160 µM (inactive)

Compound: Cc1cccc(C(=O)Nc2nnc(S(=O)(=O)N3CCOCC3)s2)c1
- IC50 [1]: 54.4 µM (inactive)

Compound: COc1ccccc1NC(=O)Cn1nc(-c2ccncc2)nc1SCC(=O)NC1CCCC1
- EC50 [10]: > 50 µM (active)

Compound: Cc1ccsc1C(C(=O)NC1CCCCC1)N(C(=O)c1csnn1)C1CC1 (centres undefined)
- IC50 [4]: 87.7 µM (active)

Compound: CC1CCCCN1S(=O)(=O)c1ccc(S(=O)(=O)NCCc2ccncc2)cc1 (centres undefined)
- EC50 [10]: > 50 µM (active)

Compound: COc1cccc(NC(=O)CSc2nn3c(=O)c(C)nnc3s2)c1
- IC50 [5]: 11.3 µM (active)

Compound: CC(C)Cc1nc(N2CCOCC2)c(C#N)c2c1COC(C)(C)C2
- EC50 [10]: > 50 µM (active)

Compound: O=C1C(Cl)=C(N2CCN(Cc3ccc4c(c3)OCO4)CC2)C(=O)N1c1cccc(C(F)(F)F)c1
- IC50 [11]: > 50 µM (inconclusive)

Compound: Cc1oc2cc([N+](=O)[O-])c(O)c([N+](=O)[O-])c2c1C(=O)c1ccc(Br)cc1
- IC50 [12]: 45.2 µM (active)
- AC50 [13]: 8.65 µM (active)
- EC50 [14]: 7.96 µM (active)
- IC50 [4]: 77 µM (active)

Compound: COc1cccc(-c2nnc(SCC(=O)O)[nH]2)c1
- IC50 [11]: > 100 µM (not active)

Compound: CC1(C)Cc2c(sc3nc4n(-c5ccccc5)c(=O)c(CCC(=O)O)nn4c(=O)c23)CO1
- IC50 [1]: 34.1 µM (inactive)

Compound: CN(C)CCCN(C(=O)c1ccc(C(=O)c2ccccc2)cc1)c1nc2cc3c(cc2s1)OCO3
- IC50 [15]: > 20 µM (inactive)
- AC50 [6]: 7.81 µM (active)

Compound: CCOC(=O)COn1c(=O)c(-c2cccs2)[n+]([O-])c2ccccc21
- EC50 [10]: > 50 µM (active)

Compound: CCc1ccc(NC(=O)Nc2ccncc2)cc1
- EC50 [10]: > 50 µM (active)

Compound: COc1ccc(OC)c(CCNC(=O)CS(=O)(=O)Cc2nc(-c3ccccc3C)oc2C)c1
- EC50 [10]: > 50 µM (active)

Compound: COc1ccc2c(c1)CC1c3c(cc4c(c3-2)OCO4)CC[N+]1(C)[O-] (centres undefined)
- AC50 [6]: 3.38 µM (active)

Compound: CCCCN(CC)Cc1c(O)ccc2c3c(c(=O)oc12)CCC3
- IC50 [4]: 57.7 µM (active)

Compound: CCN1CCCC1CNC(=O)c1ccc2c(c1)NC(=O)/C(=C\c1ccccc1F)S2 (centres undefined)
- IC50 [1]: > 80 µM (inactive)
- AC50 [6]: 6.33 µM (active)

Compound: C#CCOCCOCCOCCNc1nc(N2CCN(C(=O)Cn3cc(CCCN=C(N)N)nn3)CC2)nc(N2CCN(C(=O)[C@H](CCCCN)n3cc(CCCC)nn3)CC2)n1
- AC50 [6]: 34 µM (active)

Compound: C/C(Cn1nnc([N+](=O)[O-])n1)=N\NC(=O)c1ccc(O)cc1
- IC50 [1]: > 80 µM (inactive)

Compound: O=C(N/N=C/c1ccccc1C(=O)O)c1cc(-c2ccc3c4c(cccc24)CC3)[nH]n1
- IC50 [4]: 85.2 µM (active)

Compound: CC(=O)O[C@H]1C[C@@H]2CC[C@@H]3[C@H](CC[C@@]4(C)[C@H]3C[C@H]([N+]3(C)CCCCC3)[C@@H]4OC(C)=O)[C@@]2(C)C[C@@H]1[N+]1(C)CCCCC1 [PANCURONIUM BROMIDE]
- AC50 [6]: 8.3 µM (active)
